Usually IC50 stands for the midpoint of a concentration-inhibition curve.

Read-outs that look alike come from different tables or passages of the source. Bounds are passed on as bounds.

This passage reports IC50 results from patent publication US20250179032A1, “HETEROCYCLIC INHIBITORS OF GLUT9 FOR TREATMENT OF DISEASE” (HORIZON THERAPEUTICS IRELAND DAC, priority 2022, published 2025).

This assay deals with T1, H. sapiens SLC2A9 variant 2 (GLUT9B) (Homo sapiens, UniProt Q9NRM0).
T1 sequence (Q9NRM0 1-511 isoform Q9NRM0-2): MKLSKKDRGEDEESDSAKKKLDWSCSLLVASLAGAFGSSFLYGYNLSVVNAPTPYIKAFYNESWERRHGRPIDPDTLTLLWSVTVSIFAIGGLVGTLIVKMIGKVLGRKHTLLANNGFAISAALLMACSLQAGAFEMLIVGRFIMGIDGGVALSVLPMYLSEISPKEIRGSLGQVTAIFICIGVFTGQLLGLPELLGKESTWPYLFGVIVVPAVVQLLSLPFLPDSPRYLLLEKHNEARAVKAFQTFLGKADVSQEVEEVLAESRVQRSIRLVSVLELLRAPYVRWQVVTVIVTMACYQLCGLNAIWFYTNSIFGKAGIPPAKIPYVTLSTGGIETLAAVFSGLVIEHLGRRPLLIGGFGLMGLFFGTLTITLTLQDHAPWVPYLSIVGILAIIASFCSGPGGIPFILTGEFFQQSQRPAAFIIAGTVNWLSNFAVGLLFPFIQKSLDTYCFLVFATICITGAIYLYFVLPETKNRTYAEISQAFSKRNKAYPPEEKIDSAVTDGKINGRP
In words: GLUT9 functional assay: uric acid uptake in HEK293T cells, allantoin formation by MS/MS as proxy of GLUT9B inhibition. The format is cell-based. The conditions noted are these: HEK293T cells stably expressing GLUT9B and transiently A. oryzae uricase, uric acid 0.3 mM, 37° C. The essentials: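 Inhibition of GLUT9B-mediated urate uptake read as reduced allantoin formation, measured by MS/MS against allantoin standards in HEK293T matrix with log-logistic fitting. Stable GLUT9B HEK293T cells carrying transfected A. oryzae uricase were incubated 15 or 60 min at 37° C with uric acid at Km (0.3 mM), pH 7.4 gluconate buffer.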

Where [1] appears, read: 15 minute assay, read-out: 15 min IC50.
Where [2] appears, read: 60 minute assay, read-out: 60 min IC50.

`CCCCc1cnc(-c2ccc(OC)cc2)c(N2CCC(C(=O)NS(C)(=O)=O)CC2)n1` [Compound 11, 1-(6-Butyl-3-(4-Methoxyphenyl)Pyrazin-2-yl)-N-(Methylsulfonyl)Piperidine-4-carboxamide]: the IC50 under setting [1] is under 0.5 µM.
On to `COCC(COC)Cc1cnc(-c2cc(F)c3occc3c2)c(N2CCC(C(=O)O)CC2)n1` [Compound 53, 1-(3-(7-Fluorobenzofuran-5-yl)-6-(3-Methoxy-2-(methoxymethyl)propyl)pyrazin-2-yl)piperidine-4-carboxylic acid], for which, under setting [1], the IC50 is under 0.5 µM.
On to `O=C(O)C1CCN(c2nc(CCC(F)(F)F)cnc2-c2ccc3c(c2)OCO3)CC1` [Compound 120, 1-(3-(benzo[d][1,3]dioxol-5-yl)-6-(3,3,3-trifluoropropyl)pyrazin-2-yl)piperidine-4-carboxylic acid], for which, under setting [1], the 50% inhibitory concentration (IC50) is under 0.5 µM.
For `COCCOc1ccc(-c2ncc(CCCCC(F)(F)F)nc2N2CCC(C(=O)O)CC2)cc1` [Compound 133, 1-(3-(4-(2-methoxyethoxy)phenyl)-6-(5,5,5-trifluoropentyl)pyrazin-2-yl)piperidine-4-carboxylic acid], the half-maximal inhibitory concentration (IC50) under setting [1] was under 0.5 µM.
For `COCCCc1cnc(-c2ccc3oc(COC)cc3c2)c(N2CCC(C(=O)O)CC2)n1` [Compound 179, 1-(3-(2-(methoxymethyl)benzofuran-5-yl)-6-(3-methoxypropyl)pyrazin-2-yl)piperidine-4-carboxylic acid], the IC50 under setting [2] lay within 0.5 to 2 µM.
With `COCCCc1cnc(-c2ccc3c(c2)OCO3)c(N2CC(C(=O)O)C2)n1` [Compound 176, 1-(3-(benzo[d][1,3]dioxol-5-yl)-6-(3-methoxypropyl)pyrazin-2-yl)azetidine-3-carboxylic acid], the IC50 under setting [1] is over 2 µM.
Consider `COCCCc1cnc(-c2ccnn2CCC(C)C)c(N2CCC(C(=O)O)CC2)n1` [Compound 202, 1-(3-(1-isopentyl-1H-pyrazol-5-yl)-6-(3-methoxypropyl)pyrazin-2-yl)piperidine-4-carboxylic acid], for which the IC50 under setting [2] was over 2 µM.
In the case of `COCCCc1cnc(-c2ccnc3ccccc23)c(N2CCC(C(=O)O)CC2)n1` [Compound 200, 1-(6-(3-methoxypropyl)-3-(quinolin-4-yl)pyrazin-2-yl)piperidine-4-carboxylic acid], under setting [2], the 50% inhibitory concentration (IC50) was over 2 µM.
With `O=C(O)C1CCN(c2nc(COCC(F)(F)F)cnc2-c2ccc(Cl)c(OC(F)(F)F)c2)CC1` [Compound 58, 1-(3-(4-chloro-3-(trifluoromethoxy)phenyl)-6-((2,2,2-trifluoroethoxy)methyl)pyrazin-2-yl)piperidine-4-carboxylic acid], under setting [1], the IC50 is over 2 µM.
On the same count and under the same terms, the value for `O=C(O)C1CCN(c2nc(CCCC(F)(F)F)cnc2-c2ccc(C(F)(F)F)cc2)CC1` [Compound 158, 1-(6-(4,4,4-trifluorobutyl)-3-(4-(trifluoromethyl)phenyl)pyrazin-2-yl)piperidine-4-carboxylic acid] was 0.5 to 2 µM.
Turning to `O=C(O)C1C2CC1CN(c1nc(CCC(F)(F)F)cnc1-c1cc(F)c3occc3c1)C2` (centres unmarked) [Compound 94, 3-(3-(7-fluorobenzofuran-5-yl)-6-(3,3,3-trifluoropropyl)pyrazin-2-yl)-3-azabicyclo[3.1.1]heptane-6-carboxylic acid], the IC50 under setting [1] was 0.5 to 2 µM.
On to `COCCCCc1cnc(-c2cc(F)c3occc3c2)c(N2CCC(C(=O)O)CC2)n1` [Compound 227, 1-(3-(7-fluorobenzofuran-5-yl)-6-(4-methoxybutyl)pyrazin-2-yl)piperidine-4-carboxylic acid], for which, under setting [2], the IC50 was under 0.5 µM.
`CCCCc1cnc(-c2ccc(OC)cc2)c(-c2ccc(C(=O)O)cn2)c1` [Compound 24, 5′-butyl-2′-(4-methoxyphenyl)-[2,3′-bipyridine]-5-carboxylic acid]: under setting [1], the IC50 was over 2 µM.
Same read-out and setting: to `O=C(O)C1CCN(c2nc(CCC(F)(F)F)cnc2-c2cc(F)c3occc3c2)CC1` [Compound 61, 1-(3-(7-Fluorobenzofuran-5-yl)-6-(3,3,3-Trifluoropropyl)Pyrazin-2-yl)piperidine-4-carboxylic acid] belongs under 0.5 µM.
Take `COCCCc1cnc(-c2cccc3nn(C)cc23)c(N2CCC(C(=O)O)CC2)n1` [Compound 215, 1-(6-(3-methoxypropyl)-3-(2-methyl-2H-indazol-4-yl)pyrazin-2-yl)piperidine-4-carboxylic acid]: under setting [2], the IC50 was over 2 µM.
On to `CCCCc1cnc(-c2ccc(OC)cc2)c(N2CCC(c3nn[nH]n3)CC2)n1` [Compound 16, 3-(4-(2H-Tetrazol-5-yl)Piperidin-1-yl)-5-Butyl-2-(4-methoxyphenyl)pyrazine], for which, under setting [1], the 50% inhibitory concentration (IC50) was under 0.5 µM.
As to `COCCOCCOc1ccc(-c2ncc(CCCC(F)(F)F)nc2N2CCC(C(=O)O)CC2)cc1` [Compound 117, 1-(3-(4-(2-(2-methoxyethoxy)ethoxy)phenyl)-6-(4,4,4-trifluorobutyl)pyrazin-2-yl)piperidine-4-carboxylic acid], the IC50 under setting [1] was in the range of 0.5 to 2 µM.
As to `COCCCc1cnc(-c2ccnc3[nH]ccc23)c(N2CCC(C(=O)O)CC2)n1` [Compound 194, 1-(6-(3-methoxypropyl)-3-(1H-pyrrolo[2,3-b]pyridin-4-yl)pyrazin-2-yl)piperidine-4-carboxylic acid], under setting [2], the half-maximal inhibitory concentration (IC50) is over 2 µM.
As for `COCCOc1ncc(-c2ncc(CCC(F)(F)F)nc2N2CCC(C(=O)O)CC2)cc1F` [Compound 98, 1-(3-(5-fluoro-6-(2-methoxyethoxy)pyridin-3-yl)-6-(3,3,3-trifluoropropyl)pyrazin-2-yl)piperidine-4-carboxylic acid], the IC50 under setting [1] was over 2 µM.
As to `COCCCc1cnc(-c2ccnc3cc(OC)ccc23)c(N2CCC(C(=O)O)CC2)n1` [Compound 221, 1-(6-(3-methoxypropyl)-3-(7-methoxyquinolin-4-yl)pyrazin-2-yl)piperidine-4-carboxylic acid], the IC50 under setting [2] was over 2 µM.
On the same count and under the same terms, the value for `O=C(O)C1CCN(c2nc(CCCOC(F)(F)F)cnc2-c2cc(F)c3occc3c2)CC1` [Compound 96, 1-(3-(7-fluorobenzofuran-5-yl)-6-(3-(trifluoromethoxy)propyl)pyrazin-2-yl)piperidine-4-carboxylic acid] was under 0.5 µM.
As to `CCCCc1cnc(-c2ccc(OCCOC(F)(F)F)cc2)c(N2CCC(C(=O)O)CC2)n1` [Compound 42, 1-(6-butyl-3-(4-(2-(trifluoromethoxy)ethoxy)phenyl)pyrazin-2-yl)piperidine-4-carboxylic acid], the IC50 under setting [1] is over 2 µM.
For the molecule `COCCCc1cnc(-c2ccnc3c2ccn3C)c(N2CCC(C(=O)O)CC2)n1` [Compound 214, 1-(6-(3-methoxypropyl)-3-(1-methyl-1H-pyrrolo[2,3-b]pyridin-4-yl)pyrazin-2-yl)piperidine-4-carboxylic acid], the IC50 under setting [2] is over 2 µM.
`COCC(COC)Cc1cnc(-c2ccc(OCC3CC3)cc2)c(N2CCC(C(=O)O)CC2)n1` [Compound 156, 1-(3-(4-(cyclopropylmethoxy)phenyl)-6-(3-methoxy-2-(methoxymethyl)propyl)pyrazin-2-yl)piperidine-4-carboxylic acid]: the IC50 under setting [1] was over 2 µM.
In the case of `COc1ccc(-c2ncc(COCC(F)(F)F)nc2N2CCC(C(=O)O)CC2)cc1` [Compound 32, 1-(3-(4-methoxyphenyl)-6-((2,2,2-trifluoroethoxy)methyl)pyrazin-2-yl)piperidine-4-carboxylic acid], under setting [1], the IC50 is over 2 µM.
Take `CCCCc1cnc(-c2ccc(OC)cc2)c(-c2cnc(C(=O)O)nc2)c1` [Compound 23, 5-(5-butyl-2-(4-methoxyphenyl)pyridin-3-yl)pyrimidine-2-carboxylic acid]: the IC50 under setting [1] is over 2 µM.
